Test results: patent US7109175B1, “Specific steady-state R-type CA2+ channel blockers and use thereof” (Universite de Sherbrooke, priority 2000, dated 2006)
“Also recorded” adds a separate entry of the source.

Tests used:
[1] = tested on: L-type Ca^2+ current; test: Whole-cell voltage clamp, L-type Ca2+ current in heart cells of chick embryos; assay type: cell-based; conditions: for overall effect on L-type Ca2+ channel: summary in words
Description: Single cells of different types in culture were prepared from biopsies of human, chick and rabbit. Known and accepted methods for the isolation of fast Na^+ current, T, L and R-type Ca^2+ channels as well as delayed outward K^+ current were used (Bkaily 1994, supra).
The compounds to be tested are added to the appropriate extracellular solution after recording a stable ionic current or normal steady-state level of […]. The effect of different concentrations of compounds are tested on the different type of current and [Ca]i of the different cell types. The effect of each concentration of the compounds in function of the time of exposure are then determined. Once the steady-state effect is reached, the second concentration is added, etc.
In another series of experiments (n=5), the effect of different concentrations of MV8608 (10^−11 to 10^−6M) were tested on the L-type ICa of heart cells of chick embryos using the whole-cell and experimental conditions and protocols described elsewhere by the inventors (Bkaily G. et al., 1993, supra). As for the T-type ICa, the L-type ICa was not affected by 10^−11 to 10^−10M MV8608.
In another series of experiments (n=4), we tested the effect of MV8612 on the L-type Ca^2+ current (ICa) in chick embryonic heart cells using the whole-cell voltage clamp technique referred to above. Superfusion with 10^−9M of MV8612 decreased ICa amplitude by 10% and increasing the concentration of the compound up to 10^−8M further decreased the current amplitude by 25%. Higher concentration of MV8612 (10^−7M) decreased the ICa amplitude by 62%.

[2] = tested on: R-type Ca^2+ channel; test: Fura-2 [Ca]i, human aortic vascular smooth muscle cells (cell line and freshly isolated); assay type: cell-based; conditions: for sustained increase of [Ca]i induced by high PAF: PAF 10^−7M
Text: This sustained increase of Ca^2+ induced by depolarization of the cell membrane or hormones such as PAF, ET-1 and bradykinin is due to the increase of Ca^2+ influx through the R-type Ca^2+ channels at the sarcolemmal membrane and/or the nuclear membrane (Bkaily G., 1994, supra; 1996, supra; 1997a–d, supra). Using Ca^2+ fluorescence probes Fura-2 or Fluo-3 and 2 and three-dimension Ca^2+ imaging techniques (Bkaily G., 1994, supra; 1996, supra; 1997a–d, supra), the effect of hormones and drugs could be easily tested. These two methods are used with single cells of different types as described above.
In another series of experiments we tested the effect of MV8608 (10^−9M) on R-type Ca^2+ channels stimulation-induced sustained increase of total intracellular Ca^2+ by sustained depolarization (FIGS. 15 to 19), by PAF (10^−9M) (FIGS. 16 to 19 and 21 to 22), by ET-1 (10^−9M) (FIGS. 16 and 19) and bradykinin (BK, 10^−6M) (FIGS. 20 and 21), in embryonic chick heart cells (FIGS. 15, 16, 19 and 20), 19-week-old human fetal heart cells (FIGS. 15, 17, 18 and 20), rabbit aortic vascular smooth muscle (VSM) cells (FIGS. 20 and 21), human aortic VSM cell-line (FIG. 23) and freshly isolated (FIG. 22) as well as in freshly isolated aortic endothelial cells (FIG. 22).
In some experiments, the stimulation of the R-type Ca^2+ channel was elevated by increasing the concentration of PAF from 10^−9M up to 10^−7. […] Only a concentration of 10^−6M of MV8608 was able to block the high PAF effect on the sustained increase of [Ca]i (FIG. 23).
Using Fura-2 [Ca]i measurement technique, in one series of experiments we tested the effect of MV8612 (10^−9M) on the stimulation of R-type Ca^2+-induced sustained increase of [Ca]i by sustained depolarization (FIGS. 26 and 27), PAF (10^−9M, FIG. 34) and ET-1 (FIGS. 33 and 34).

[3] = tested on: R-type Ca^2+ channel; test: Confocal Fluo-3 3-dimension measurement of [Ca]c and [Ca]n, chick heart cells and human aortic VSM cell line; assay type: cell-based; conditions: for sustained increase of [Ca]c and [Ca]n induced by high PAF: PAF 10^−7M; for sustained depolarization induced sustained increase of [Ca]c and [Ca]n: heart cells, FIG. 29 panel A; for prevention of sustained increase of [Ca]c and [Ca]n: chick heart cells and human aortic VSM cell line
[4] = tested on: human aortic vascular smooth muscle cell line; test: Spontaneous proliferation of human aortic vascular smooth muscle cell line; assay type: cell-based; conditions: 10^−8M
[5] = tested on: pleurisy in mice; test: Murine model of pleurisy; assay type: in vivo; conditions: for neutrophil cells, carrageenan pleurisy / total cells, carrageenan pleurisy: MV 8612 30 and 60, MV 8608 30, i.p.
Description: (§1) To assess further the anti-inflammatory action of MV 8612 and MV 8608, their effects against the inflammatory responses caused by several mediators of inflammation in a murine model of pleurisy were tested (Saleh et al., 1996, Br. J. Pharmacol. 118:811–819). In addition, both compounds were tested against the increase of vascular permeability caused by bradykinin in the rat skin (Neves et al., 1993b, Phytotherapy Research. 7:356–362).

[6] = tested on: vascular permeability in the rat skin; test: Bradykinin-induced skin vascular permeability in rats; assay type: in vivo; conditions: for increase of vascular permeability caused by bradykinin: MV 8612 8 and 16, MV 8608 27 and 54, i.p.
Description: as §1

[7] = tested on: human lymphocyte proliferation; test: Human lymphocyte proliferation in vitro; assay type: cell-based; conditions: for inhibition of human lymphocyte proliferation: MV 8612 0.02 to 0.32 M, MV 8608 14.5 to 116 M
Description: In a separate series of experiments, compounds MV 8612 and MV 8608 were tested to analyze whether they interfered with human lymphocyte proliferation “in vitro”. These experiments were carried out as reported previously (Moraes et al., 1996, Eur. J. Pharmacol. 312:333–339).

[8] = tested on: writhing response in mice; test: Writhing response in mice (acetic acid, acetylcholine, kaolin); assay type: in vivo; conditions: for acetic acid, acetylcholine and kaolin-induced writhing response: MV 8612 0.25 to 2.5, MV 8608 2.7, i.p., 30 min prior
Text: The antinociceptive actions of compound MV 8612 and MV 8608 were investigated in different models of nociception in mice as reported previously (Vaz et al., 1996, J. Pharmacol. Exp. Ther. 278:304–312).

[9] = sustained depolarization and PAF 10^−7M

C[C@]12CC[C@H](O)CC1=CC[C@@H]1[C@@H]2CC[C@]2(C)[C@H]3[C@@H]4OC[C@H]3O[C@@H](O)[C@]12O4 [MV8608, (15R, 16R, 20S)-14, 16:15,20:16,21-triepoxi-15,16-seco 14β, 17α-pregn-5-ene-3β, 15-diol]
change of L-type ICa amplitude effect at higher concentration ([1]; 5×10^−7M): further slight increase
decrease of L-type ICa amplitude ([1]; 10^−9M): 10%
effect on L-type ICa ([1]; 10^−11 to 10^−10M): not affected
overall effect on L-type Ca2+ channel [1]: very weak depressor; also recorded: relative weak depressing effect
PAF induced sustained increase of [Ca]i ([2]; 10^−9M, PAF 10^−9M, freshly isolated human aortic VSM cells): blockade
sustained increase of [Ca]i induced by high PAF ([2]; MV8608 10^−6M, human aortic VSM cell line): able to block; also recorded: blockade
sustained increase of [Ca]i induced by high PAF ([2]; MV8608 10^−9M): failed to significantly decrease
cytosolic and nuclear Ca2+ sustained overload ([3]; 10^−7M, KCl 30 mM and PAF, nifedipine present): blocked both the cytosolic and nuclear Ca^2+ sustained overload
prevention of depolarization-induced stimulation of R-type channel ([Ca]c, [Ca]n) ([3]; 10^−8 M and 10^−7 M): prevented the stimulation of the R-type Ca^2+ channel
prevention of high PAF action ([3]; PAF 10^−7 M, 10^−9M): succeeded in preventing the high PAF action
sustained increase of [Ca]c and [Ca]n induced by high PAF ([3]; MV8608 10^−6M): significantly decrease; also recorded: blocked
sustained depolarization induced sustained increase of [Ca]c and [Ca]n [3]: blocked completely
prevention of sustained increase of [Ca]c and [Ca]n [3, 9]: preventive effect
spontaneous proliferation [4]: significantly decreased
mononuclear cells influx, PAF pleurisy ([5]; 30, i.p.): antagonised significantly
plasma extravasation, PAF pleurisy ([5]; 30, i.p.): antagonised significantly
neutrophil cells, carrageenan pleurisy [5]: inhibited significantly
total cells, carrageenan pleurisy [5]: inhibited significantly
increase of vascular permeability caused by bradykinin [6]: antagonised in a dose-related manner
inhibition of human lymphocyte proliferation [7]: graded inhibition
acetic acid, acetylcholine and kaolin-induced writhing response [8]: only partial or even no antinociceptive action

COC1CC(OC2C(C)OC(O[C@H]3CC[C@@]4(C)C(=CC[C@@H]5[C@@H]4CC[C@]4(C)[C@H]6[C@@H]7OC[C@H]6O[C@@H](O)[C@]54O7)C3)CC2OC)OC(C)C1OC1CC(OC)C(OC2CC(OC)C(OC3OC(C)C(OC(C)=O)C(OC)C3OC(C)=O)C(C)O2)C(C)O1 (stereo partly drawn) [MV8612]
decrease of L-type ICa amplitude ([1]; 10^−7M): 62%
decrease of L-type ICa amplitude ([1]; 10^−8M): 25%
decrease of L-type ICa amplitude ([1]; 10^−9M): 10%
overall effect on L-type Ca2+ channel [1]: more potent L-type Ca^2+ channel antagonist properties than that of MV8608
prevention of sustained increase of [Ca]i ([2]; 10^−8M, KCl 30 mM and PAF 10^−7M, human aortic VSM cell line): found to prevent; also recorded: preventive effect
sustained increase of [Ca]c and [Ca]n induced by high PAF ([3]; MV8612 10^−8M): blocked
sustained depolarization induced sustained increase of [Ca]c and [Ca]n [3]: blocked completely
potency of blocking sustained increase of [Ca]c and [Ca]n, comparison [3, 9]: more potent blocker than MV8608
potency of preventing stimulation of R-type channel, comparison [3, 9]: equipotent in preventing
prevention of sustained increase of [Ca]c and [Ca]n [3, 9]: preventive effect
spontaneous proliferation [4]: significantly decreased
plasma extravasation, carrageenan pleurisy ([5]; 30 and 60, i.p., 1 h prior): significantly inhibited
neutrophil cells, carrageenan pleurisy [5]: significantly inhibited
total cells, carrageenan pleurisy [5]: significantly inhibited
inflammatory response caused by PAF acether ([5]; same range of dose, i.p.): did not affect significantly
increase of vascular permeability caused by bradykinin [6]: antagonised in a dose-related manner
activity against bradykinin vascular permeability, comparison ([6]; MV 8612 versus MV 8608): more active than MV 8608
inhibition of human lymphocyte proliferation [7]: graded inhibition
potency ratio MV 8612 versus MV 8608, lymphocyte proliferation ([7]; more potent): about 570 fold
acetic acid, acetylcholine and kaolin-induced writhing response [8]: dose-dependent inhibition
acetic acid-induced writhes, i.c.v. ([8]; MV 8612 4.2 to 42 nmol/site, morphine 0.26 to 13 nmol/site): dose-related antinociception
ID50 ACETIC ACID ([8]; i.p., mice, acetic acid-induced writhes): 2.4 (1.9–2.6) μmol/kg
ID50 ACETYLCHOLINE ([8]; i.p., mice, acetylcholine-induced writhes): 2.2 (2.0–2.3) μmol/kg
ID50 KAOLIN ([8]; i.p., mice, kaolin-induced writhes): 0.4 (0.3–0.6) μmol/kg
potency versus morphine, i.c.v., acetic acid-induced writhes ([8]; less potent than morphine): about 12 fold
potency against kaolin-induced pain versus the other writhing models ([8]; more potent): about 2 fold
potency versus morphine and indomethacin, kaolin-induced writhes ([8]; more potent): about 2 fold
